Results as given in ChEMBL document CHEMBL1121869, “Potential inhibitors of L-asparagine biosynthesis. 5. Electrophilic amide analogues of (S)-2,3-diaminopropionic acid” (J Med Chem, 1981).

Key:
[1] = test system: TsH1; test: Compound was evaluated for the growth inhibition of TsH1 cells in an enriched eagles minimal essential medium, medium lacking aspartic acid and asparagine at a concentration of 1.0 mg/mL (4.65 mM); Cells dead; type: functional, cell-based; conditions: Cricetulus griseus
[2] = test system: TsH1; test: (§1) Compound was evaluated for the growth inhibition of TsH1 cells in an enriched eagles minimal essential medium, medium lacking asparagine at a concentration of 0.04 mg/mL (0.19 mM); Heavy growth; type: functional, cell-based; conditions: Cricetulus griseus
[3] = test system: TsH1; test: Compound was evaluated for the growth inhibition of TsH1 cells in an enriched eagles minimal essential medium, medium lacking aspartic acid and asparagine at a concentration of 0.01 mg/mL (0.04 mM); Heavy growth; type: functional, cell-based; conditions: Cricetulus griseus
[4] = test system: TsH1; test: Compound was evaluated for the growth inhibition of TsH1 cells in an enriched eagles minimal essential medium, medium lacking aspartic acid at a concentration of 1.0 mg/mL (4.65 mM); Medium growth; type: functional, cell-based; conditions: Cricetulus griseus
[5] = test system: TsH1; test: Compound was evaluated for the growth inhibition of TsH1 cells in an enriched eagles minimal essential medium, complete medium at a concentration of 0.04 mg/mL (0.19 mM); Heavy growth; type: functional, cell-based; conditions: Cricetulus griseus
[6] = test system: TsH1; test: Compound was evaluated for the growth inhibition of TsH1 cells in an enriched eagles minimal essential medium, medium lacking aspartic acid at a concentration of 0.01 mg/mL (0.04 mM); Heavy growth; type: functional, cell-based; conditions: Cricetulus griseus
[7] = test system: TsH1; test: Compound was evaluated for the growth inhibition of TsH1 cells in an enriched eagles minimal essential medium, medium lacking aspartic acid and asparagine at a concentration of 0.2 mg/mL (0.93 mM); Cells dead; type: functional, cell-based; conditions: Cricetulus griseus
[8] = test system: TsH1; test: Compound was evaluated for the growth inhibition of TsH1 cells in an enriched eagles minimal essential medium, medium lacking asparagine at a concentration of 0.01 mg/mL (0.04 mM); Heavy growth; type: functional, cell-based; conditions: Cricetulus griseus
[9] = target: T1, Asparagine synthetase [glutamine-hydrolyzing] (Rattus norvegicus) (UniProt P49088); test: Inhibition of asparagine synthetase from partially purified rat Novikoff hepatoma at a final concentration of 1 mM with
T1 sequence (whole entry): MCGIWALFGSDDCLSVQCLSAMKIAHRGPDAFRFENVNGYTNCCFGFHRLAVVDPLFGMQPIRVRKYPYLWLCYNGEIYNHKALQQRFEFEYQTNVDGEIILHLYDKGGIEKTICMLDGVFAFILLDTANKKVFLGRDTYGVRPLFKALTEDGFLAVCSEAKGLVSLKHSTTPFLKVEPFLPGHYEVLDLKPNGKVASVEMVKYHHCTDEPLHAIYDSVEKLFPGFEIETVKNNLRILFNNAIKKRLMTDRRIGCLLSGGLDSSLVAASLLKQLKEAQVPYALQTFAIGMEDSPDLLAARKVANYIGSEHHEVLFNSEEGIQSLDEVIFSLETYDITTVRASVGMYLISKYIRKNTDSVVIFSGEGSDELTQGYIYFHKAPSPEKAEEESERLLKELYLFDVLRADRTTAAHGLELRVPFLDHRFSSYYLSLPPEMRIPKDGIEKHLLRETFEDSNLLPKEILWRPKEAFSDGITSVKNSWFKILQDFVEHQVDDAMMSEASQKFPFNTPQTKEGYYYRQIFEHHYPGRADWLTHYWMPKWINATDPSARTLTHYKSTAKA

[10] = test system: TsH1; test: Compound was evaluated for the growth inhibition of TsH1 cells in an enriched eagles minimal essential medium, medium lacking aspartic acid and asparagine at a concentration of 0.04 mg/mL (0.19 mM); Heavy growth; type: functional, cell-based; conditions: Cricetulus griseus
[11] = test system: TsH1; test: Compound was evaluated for the growth inhibition of TsH1 cells in an enriched eagles minimal essential medium, complete medium at a concentration of 0.2 mg/mL (0.93 mM); Heavy growth; type: functional, cell-based; conditions: Cricetulus griseus
[12] = test system: TsH1; test: Compound was evaluated for the growth inhibition of TsH1 cells in an enriched eagles minimal essential medium, medium lacking asparagine at a concentration of 0.2 mg/mL (0.93 mM); Cells dead; type: functional, cell-based; conditions: Cricetulus griseus
[13] = test system: TsH1; test: as §1; type: functional, cell-based; conditions: Cricetulus griseus; remark: listed apart in the source
[14] = test system: TsH1; test: Compound was evaluated for the growth inhibition of TsH1 cells in an enriched eagles minimal essential medium, complete medium at a concentration of 0.01 mg/mL (0.04 mM); Heavy growth; type: functional, cell-based; conditions: Cricetulus griseus
[15] = test system: TsH1; test: Compound was evaluated for the growth inhibition of TsH1 cells in an enriched eagles minimal essential medium, medium lacking aspartic acid at a concentration of 0.2 mg/mL (0.93 mM); Heavy growth; type: functional, cell-based; conditions: Cricetulus griseus
[16] = test system: TsH1; test: Compound was evaluated for the growth inhibition of TsH1 cells in an enriched eagles minimal essential medium, medium lacking asparagine at a concentration of 1.0 mg/mL (4.65 mM); Cells dead; type: functional, cell-based; conditions: Cricetulus griseus
[17] = test system: TsH1; test: Compound was evaluated for the growth inhibition of TsH1 cells in an enriched eagles minimal essential medium, complete medium at a concentration of 1.0 mg/mL (4.65 mM); Medium growth; type: functional, cell-based; conditions: Cricetulus griseus
[18] = target: T1, Asparagine synthetase [glutamine-hydrolyzing] (Rattus norvegicus); test: Inhibition of asparagine synthetase from partially purified rat Novikoff hepatoma at a final concentration of 2 mM

| inhibition [18] [%] | Compound | Growth inhibition [1] | Growth inhibition [2] | Growth inhibition [3] | Growth inhibition [4] | Growth inhibition [5] | Growth inhibition [6] | Growth inhibition [7] | Growth inhibition [8] | inhibition [9] [%] | Growth inhibition [10] | Growth inhibition [11] | Growth inhibition [12] | Growth inhibition [13] | Growth inhibition [14] | Growth inhibition [15] | Growth inhibition [16] | Growth inhibition [17] |
| --- | --- | --- | --- | --- | --- | --- | --- | --- | --- | --- | --- | --- | --- | --- | --- | --- | --- | --- |
| – | NC(CNC(=O)C(Cl)Cl)C(=O)O (centres undefined) | Not toxic | Heavy Growth | Heavy Growth | Medium Growth | Heavy Growth | Heavy Growth | Not toxic | Heavy Growth | 18.7 | Heavy Growth | Heavy Growth | Not toxic | Heavy Growth | Heavy Growth | Heavy Growth | Not toxic | Medium Growth |
| 0 | NCC(N)C(=O)O (centres undefined) | – | – | – | – | – | – | – | – | – | – | – | – | – | – | – | – | – |
| 0 | CC(=O)NCC(N)C(=O)O (centres undefined) | – | – | – | – | – | – | – | – | – | – | – | – | – | – | – | – | – |
